Measured values: article PMC12396409, “Screening and hit evaluation of a microbial metabolite library against the pathogenic Plasmodium falciparum and Toxoplasma gondii parasites” (International Journal for Parasitology: Drugs and Drug …, 2025)
Read-outs that look alike come from different tables or passages of the source.

Key:
[1] = tested on: P. falciparum 3D7 parasites; assay: P. falciparum growth inhibition assay, 1-cycle (72 h treatment), SYBR DNA staining (library screen at 2 μg/mL and dose-response); format: cell-based, Plasmodium falciparum; details: for activity at 2 µg/mL: Plasmodium falciparum, 3D7, 72 h
[2] = tested on: P. falciparum 3D7 parasites; assay: P. falciparum growth inhibition assay, 2-cycle (120 h treatment), delayed-death screen and dose-response; format: cell-based, Plasmodium falciparum; details: for activity at 2 µg/mL: Plasmodium falciparum, 3D7, 120 h
[3] = tested on: T. gondii RH strain (RH-Tub-eYFP) tachyzoites; assay: microbe, parasite or virus in culture; format: cell-based, Toxoplasma gondii; details: 72 h; for percent parasite growth at 2 µg/mL: Toxoplasma gondii
[4] = library screen at 2 μg/mL, 72 h, % growth, replicate 1
[5] = library screen at 2 μg/mL, 72 h, % growth, replicate 2
[6] = library screen at 2 μg/mL, 120 h, % growth, replicate 1
[7] = library screen at 2 μg/mL, 120 h, % growth, replicate 2
[8] = library screen at 2 μg/mL, % growth, replicate 1
[9] = library screen at 2 μg/mL, % growth, replicate 2
[10] = P. falciparum, 72 h, screen at 2 μg/mL, replicate 1, read-out: Pf_72h_%Growth_Rep1
[11] = P. falciparum, 72 h, screen at 2 μg/mL, replicate 2, read-out: Pf_72h_%Growth_Rep2
[12] = P. falciparum, 120 h, screen at 2 μg/mL, replicate 1, read-out: Pf_120h_%Growth_Rep1
[13] = P. falciparum, 120 h, screen at 2 μg/mL, replicate 2, read-out: Pf_120h_%Growth_Rep2
[14] = T. gondii, screen at 2 μg/mL, replicate 1, read-out: Tg_72h_%Growth_Rep1
[15] = T. gondii, screen at 2 μg/mL, replicate 2, read-out: Tg_72h_%Growth_Rep2

Work on CC(=O)OC[C@]12CCC(C)=C[C@H]1O[C@@H]1[C@H](O)[C@@H](O)[C@@]2(C)[C@]12CO2 [Acetoxyscirpenol, 15-] yielded a Pf_72h_%Growth_Rep1 [1, 4] of 9.02%, a Pf_72h_%Growth_Rep2 [1, 5] of 0.50% and a Pf_120h_%Growth_Rep1 [2, 6] of 8.73%. The Pf_120h_%Growth_Rep2 [2, 7] was 7.76%, the Tg_72h_%Growth_Rep1 [3, 8] was -2.14% and the Tg_72h_%Growth_Rep2 [3, 9] was 0.34%.
CO[C@H]1[C@@H](O)[C@@H](C)O[C@H](O[C@H]2[C@H](Oc3cccc4c(O)c5c(=O)oc6ccc(C)c7c(=O)oc(c34)c5c67)O[C@H](C)[C@H](O)[C@@H]2O)[C@@H]1O [Chartreusin] was tested, and the activity at 2 µg/mL [1, 10] was 101%, the activity at 2 µg/mL [1, 11] was 88.7% and the activity at 2 µg/mL [2, 12] was 144%. It also gave an activity at 2 µg/mL [2, 13] of 96.8%, a percent parasite growth at 2 µg/mL [3, 14] of 85.7% and a percent parasite growth at 2 µg/mL [3, 15] of 97.4%.
Work on CCC1OC2(CCC1C)CC1CC(CC=C(C)CC(C)C=CC=C3COC4C(O)C(C)=CC(C(=O)O1)C34O)O2 (stereo not drawn) [BIA-M1052] yielded a Pf_72h_%Growth_Rep1 ([1]; P. falciparum 3D7, 72 h, parasite screen at 2 μg/mL, % growth, replicate 1) of 59.66%, a Pf_72h_%Growth_Rep2 ([1]; P. falciparum 3D7, 72 h, parasite screen at 2 μg/mL, % growth, replicate 2) of 59.04% and a Pf_120h_%Growth_Rep1 ([2]; P. falciparum 3D7, 120 h, parasite screen at 2 μg/mL, % growth, replicate 1) of 32.48%. For the same molecule, the Pf_120h_%Growth_Rep2 ([2]; P. falciparum 3D7, 120 h, parasite screen at 2 μg/mL, % growth, replicate 2) was 50.00%, the Tg_72h_%Growth_Rep1 ([3]; T. gondii, parasite screen at 2 μg/mL, % growth, replicate 1) was 117.80% and the Tg_72h_%Growth_Rep2 ([3]; T. gondii, parasite screen at 2 μg/mL, % growth, replicate 2) was 80.70%.
Work on C[C@H]1CCCC(=O)CCCCCc2cc(O)cc(O)c2C(=O)O1 [Zearalanone] yielded an activity at 2 µg/mL [1, 10] of 31.9%, an activity at 2 µg/mL [1, 11] of 78.2% and an activity at 2 µg/mL [2, 12] of 102%. The activity at 2 µg/mL [2, 13] was 77.7%, the percent parasite growth at 2 µg/mL [3, 14] was 97% and the percent parasite growth at 2 µg/mL [3, 15] was 107%.
CC[C@H](C)[C@H]1O[C@]2(C=C[C@@H]1C)C[C@@H]1C[C@@H](C/C=C(\C)[C@@H](O[C@H]3C[C@H](OC)[C@@H](O[C@H]4C[C@H](OC)[C@H](NC)[C@H](C)O4)[C@H](C)O3)[C@@H](C)/C=C/C=C3\CO[C@@H]4[C@H](O)C(C)=C[C@@H](C(=O)O1)[C@]34O)O2 [Emamectin B1a] was tested, and the Pf_72h_%Growth_Rep1 [1, 4] was 2.12%, the Pf_72h_%Growth_Rep2 [1, 5] was 0.39% and the Pf_120h_%Growth_Rep1 [2, 6] was 3.81%. The Pf_120h_%Growth_Rep2 [2, 7] was 6.54%, the Tg_72h_%Growth_Rep1 [3, 8] was 22.56% and the Tg_72h_%Growth_Rep2 [3, 9] was 92.26%.
Molecule CO[C@H]1/C=C\C=C(/C)C(=O)Nc2cc(O)cc(c2O)[C@H](OC)[C@@H](C)C[C@H](OC)[C@H](O)[C@@H](C)/C=C(\C)[C@@H]1OC(N)=O [TAN 420C] has a Pf_72h_%Growth_Rep1 ([1]; P. falciparum, 72 h, parasite screen 2 μg/mL, % growth, replicate 1) of 3.02%, a Pf_72h_%Growth_Rep2 ([1]; P. falciparum, 72 h, parasite screen 2 μg/mL, % growth, replicate 2) of -2.54% and a Pf_120h_%Growth_Rep1 ([2]; P. falciparum, 120 h, parasite screen 2 μg/mL, % growth, replicate 1) of 31.69%. For the same molecule, the Pf_120h_%Growth_Rep2 ([2]; P. falciparum, 120 h, parasite screen 2 μg/mL, % growth, replicate 2) was 5.24%, the Tg_72h_%Growth_Rep1 ([3]; T. gondii, parasite screen 2 μg/mL, % growth, replicate 1) was 82.44% and the Tg_72h_%Growth_Rep2 ([3]; T. gondii, parasite screen 2 μg/mL, % growth, replicate 2) was 97.92%.
C/C(=C\c1csc(C)n1)[C@@H]1C[C@@H]2O[C@@H]2CCC[C@H](C)[C@H](O)[C@@H](C)C(=O)C(C)(C)[C@@H](O)CC(=O)O1 [Epothilone A] was tested, and the activity at 2 µg/mL ([1]; library screen at 2 μg/mL, 72 h, % growth, replicate 1, read-out: Pf_72h_%Growth_Rep1) was 5.34%, the activity at 2 µg/mL ([1]; library screen at 2 μg/mL, 72 h, % growth, replicate 2, read-out: Pf_72h_%Growth_Rep2) was 6.86% and the activity at 2 µg/mL ([2]; library screen at 2 μg/mL, 120 h, % growth, replicate 1, read-out: Pf_120h_%Growth_Rep1) was -6.26%. The activity at 2 µg/mL ([2]; library screen at 2 μg/mL, 120 h, % growth, replicate 2, read-out: Pf_120h_%Growth_Rep2) was 10.7%, the percent parasite growth at 2 µg/mL ([3]; library screen at 2 μg/mL, % growth, replicate 1, read-out: Tg_72h_%Growth_Rep1) was 2.49% and the percent parasite growth at 2 µg/mL ([3]; library screen at 2 μg/mL, % growth, replicate 2, read-out: Tg_72h_%Growth_Rep2) was 2.65%.
With CC(C)[C@@H]1NC(=O)[C@H](Cc2ccccc2)NC1=O [Cyclo(L-Phe-L-Val)] the Pf_72h_%Growth_Rep1 ([1]; P. falciparum, 72 h, screen at 2 μg/mL, replicate 1) was 85.66%, the Pf_72h_%Growth_Rep2 ([1]; P. falciparum, 72 h, screen at 2 μg/mL, replicate 2) was 90.47% and the Pf_120h_%Growth_Rep1 ([2]; P. falciparum, 120 h, screen at 2 μg/mL, replicate 1) was 67.70%. For the same molecule, the Pf_120h_%Growth_Rep2 ([2]; P. falciparum, 120 h, screen at 2 μg/mL, replicate 2) was 97.99%, the Tg_72h_%Growth_Rep1 ([3]; T. gondii, screen at 2 μg/mL, replicate 1) was 132.95% and the Tg_72h_%Growth_Rep2 ([3]; T. gondii, screen at 2 μg/mL, replicate 2) was 103.43%.
